Experimental data published in patent publication US12077503B2, “Substituted cyclic amides and their use as herbicides” (FMC CORPORATION, priority 2015, dated 2024).

Assays:
Assay type in all cases: in vivo
Kochia (Kochia scoparia) [1] = experiment: Test A preemergence; conditions: Bassia scoparia, pre-emergence, 240 h, 0 to 100 scale where 0 is no effect and 100 is complete control, read-out: Kochia plant response rating
Summary of the method: (§1)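 Seeded soil received test chemicals as a preemergence directed spray, and seedlings at one to two leaves, 2–10 cm tall, received them postemergence, in a non-phytotoxic, surfactant-containing solvent mixture. Pots were held in a greenhouse for approximately 10 d, then rated for injury from 0, no effect, to 100, complete control.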

[2] = test system: barnyardgrass (Echinochloa crus-galli); experiment: Test A preemergence; conditions: Echinochloa crus-galli, pre-emergence, 240 h, 0 to 100 scale where 0 is no effect and 100 is complete control, read-out: Barnyardgrass plant response rating
Summary of the method: as §1

[3] = test system: giant foxtail (Setaria faberii); experiment: Test A preemergence; conditions: Setaria faberi, pre-emergence, 240 h, 0 to 100 scale where 0 is no effect and 100 is complete control, read-out: Foxtail, Giant plant response rating
Summary of the method: as §1

[4] = test system: pigweed (Amaranthus retroflexus); experiment: Test A preemergence; conditions: Amaranthus retroflexus, pre-emergence, 240 h, 0 to 100 scale where 0 is no effect and 100 is complete control, read-out: Pigweed plant response rating
[5] = test system: ragweed (common ragweed, Ambrosia elatior); experiment: Test A preemergence; conditions: Ambrosia artemisiifolia, pre-emergence, 240 h, 0 to 100 scale where 0 is no effect and 100 is complete control, read-out: Ragweed plant response rating
Summary of the method: as §1

[6] = test system: ryegrass, Italian (Italian ryegrass, Lolium multiflorum); experiment: Test A preemergence; conditions: Lolium multiflorum, pre-emergence, 240 h, 0 to 100 scale where 0 is no effect and 100 is complete control, read-out: Ryegrass, Italian plant response rating
Summary of the method: as §1

[7] = test system: Galium (catchweed bedstraw, Galium aparine); experiment: Test A postemergence; conditions: Galium, post-emergence, 240 h
Summary of the method: as §1

Kochia (Kochia scoparia) [8] = experiment: Test A postemergence; conditions: Bassia scoparia, post-emergence, 240 h
Summary of the method: as §1

[9] = test system: barnyardgrass (Echinochloa crus-galli); experiment: Test A postemergence; conditions: Echinochloa crus-galli, post-emergence, 240 h
Summary of the method: as §1

[10] = test system: blackgrass (Alopecurus myosuroides); experiment: Test A postemergence; conditions: Alopecurus myosuroides, post-emergence, 240 h
Summary of the method: as §1

corn (Zea mays) = experiment: Test A postemergence; conditions: Zea mays, post-emergence, 240 h
Summary of the method: as §1

[11] = test system: giant foxtail (Setaria faberii); experiment: Test A postemergence; conditions: Setaria faberi, post-emergence, 240 h
Summary of the method: as §1

[12] = test system: pigweed (Amaranthus retroflexus); experiment: Test A postemergence; conditions: Amaranthus retroflexus, post-emergence, 240 h
Summary of the method: as §1

[13] = test system: ragweed (common ragweed, Ambrosia elatior); experiment: Test A postemergence; conditions: Ambrosia artemisiifolia, post-emergence, 240 h
Summary of the method: as §1

[14] = test system: ryegrass, Italian (Italian ryegrass, Lolium multiflorum); experiment: Test A postemergence; conditions: Lolium multiflorum, post-emergence, 240 h
Summary of the method: as §1

[15] = test system: wheat (Triticum aestivum); experiment: Test A postemergence; conditions: Triticum aestivum, post-emergence, 240 h
Summary of the method: as §1

[16] = test system: barnyardgrass (Echinochloa crus-galli); experiment: Test B flooded paddy test; conditions: Echinochloa crus-galli, 250 g ai/ha, Flood; 0 to 100 scale where 0 is no effect and 100 is complete control; read-out: Barnyardgrass plant response rating
Summary of the method: (§2)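 Plants at 2-leaf stage flooded to 3 cm above soil, with compounds applied directly to paddy water and that depth maintained. Plants kept in greenhouse 13–15 d. Visual rating versus controls on a 0 (no effect) to 100 (complete control) scale.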

[17] = test system: ducksalad (Heteranthera limosa); experiment: Test B flooded paddy test; conditions: Heteranthera limosa, 250 g ai/ha, Flood; 0 to 100 scale where 0 is no effect and 100 is complete control; read-out: Ducksalad plant response rating
Summary of the method: as §2

rice (Oryra sativa) = experiment: Test B flooded paddy test; conditions: Oryza sativa, 250 g ai/ha, Flood; 0 to 100 scale where 0 is no effect and 100 is complete control; read-out: Rice plant response rating
Summary of the method: as §2

[18] = test system: sedge, umbrella (small-flower umbrella sedge, Cyperus difformis); experiment: Test B flooded paddy test; conditions: Cyperus difformis, 250 g ai/ha, Flood; 0 to 100 scale where 0 is no effect and 100 is complete control; read-out: Sedge, Umbrella plant response rating
Summary of the method: as §2

[19] = 125 g ai/ha, preemergence, approx. 10 d

CN1C[C@H](c2cc(C(F)F)cs2)[C@@H](C(=O)Nc2ccc(F)c(F)c2F)C1=O [Compound 1083]
pest or weed control at 31 g/ha (Kochia (Kochia scoparia) [1]; 31 g ai/ha, Preemergence): 20% | pest or weed control at 125 g/ha (Kochia (Kochia scoparia) [1]; [19]): 90% | pest or weed control at 31 g/ha ([2]; 31 g ai/ha, Preemergence): 90% | pest or weed control at 125 g/ha [2, 19]: 100% | pest or weed control at 31 g/ha ([3]; 31 g ai/ha, Preemergence): 100% | pest or weed control at 125 g/ha [3, 19]: 100% | pest or weed control at 31 g/ha ([4]; 31 g ai/ha, Preemergence): 0% | pest or weed control at 125 g/ha [4, 19]: 20% | pest or weed control at 31 g/ha ([5]; 31 g ai/ha, Preemergence): 0% | pest or weed control at 125 g/ha [5, 19]: 80% | pest or weed control at 31 g/ha ([6]; 31 g ai/ha, Preemergence): 20% | pest or weed control at 125 g/ha [6, 19]: 60% | pest or weed control at 125 g/ha ([7]; 125 g ai/ha, postemergence, visual injury on 0 to 100 scale (0 no effect, 100 complete control), approx. 10 d, read-out: Galium plant response rating): 70% | pest or weed control at 31 g/ha ([7]; Postemergence, 31 g ai/ha, visual injury after approx. 10 d, 0 to 100 scale, 0 no effect, 100 complete control, read-out: Plant response rating, Galium): 60% | pest or weed control at 125 g/ha (Kochia (Kochia scoparia) [8]; 125 g ai/ha, postemergence, visual injury on 0 to 100 scale (0 no effect, 100 complete control), approx. 10 d, read-out: Kochia plant response rating): 40% | pest or weed control at 31 g/ha (Kochia (Kochia scoparia) [8]; Postemergence, 31 g ai/ha, visual injury after approx. 10 d, 0 to 100 scale, 0 no effect, 100 complete control, read-out: Plant response rating, Kochia): 20% | pest or weed control at 125 g/ha ([9]; 125 g ai/ha, postemergence, visual injury on 0 to 100 scale (0 no effect, 100 complete control), approx. 10 d, read-out: Barnyardgrass plant response rating): 90% | pest or weed control at 31 g/ha ([9]; Postemergence, 31 g ai/ha, visual injury after approx. 10 d, 0 to 100 scale, 0 no effect, 100 complete control, read-out: Plant response rating, Barnyardgrass): 90% | pest or weed control at 125 g/ha ([10]; 125 g ai/ha, postemergence, visual injury on 0 to 100 scale (0 no effect, 100 complete control), approx. 10 d, read-out: Blackgrass plant response rating): 60% | pest or weed control at 31 g/ha ([10]; Postemergence, 31 g ai/ha, visual injury after approx. 10 d, 0 to 100 scale, 0 no effect, 100 complete control, read-out: Plant response rating, Blackgrass): 50% | plant injury at 125 g/ha (corn (Zea mays); 125 g ai/ha, postemergence, visual injury on 0 to 100 scale (0 no effect, 100 complete control), approx. 10 d, read-out: Corn plant response rating): 40% | Corn plant response rating (crop injury, 0 = no effect, 100 = complete kill) at 31 g/ha (corn (Zea mays); Postemergence, 31 g ai/ha, visual injury after approx. 10 d, 0 to 100 scale, 0 no effect, 100 complete control): 20% | pest or weed control at 125 g/ha ([11]; 125 g ai/ha, postemergence, visual injury on 0 to 100 scale (0 no effect, 100 complete control), approx. 10 d, read-out: Foxtail, Giant plant response rating): 90% | pest or weed control at 31 g/ha ([11]; Postemergence, 31 g ai/ha, visual injury after approx. 10 d, 0 to 100 scale, 0 no effect, 100 complete control, read-out: Plant response rating, Foxtail, Giant): 80% | pest or weed control at 125 g/ha ([12]; 125 g ai/ha, postemergence, visual injury on 0 to 100 scale (0 no effect, 100 complete control), approx. 10 d, read-out: Pigweed plant response rating): 20% | pest or weed control at 31 g/ha ([12]; Postemergence, 31 g ai/ha, visual injury after approx. 10 d, 0 to 100 scale, 0 no effect, 100 complete control, read-out: Plant response rating, Pigweed): 0% | pest or weed control at 125 g/ha ([13]; 125 g ai/ha, postemergence, visual injury on 0 to 100 scale (0 no effect, 100 complete control), approx. 10 d, read-out: Ragweed plant response rating): 30% | pest or weed control at 31 g/ha ([13]; Postemergence, 31 g ai/ha, visual injury after approx. 10 d, 0 to 100 scale, 0 no effect, 100 complete control, read-out: Plant response rating, Ragweed): 0% | pest or weed control at 125 g/ha ([14]; 125 g ai/ha, postemergence, visual injury on 0 to 100 scale (0 no effect, 100 complete control), approx. 10 d, read-out: Ryegrass, Italian plant response rating): 20% | pest or weed control at 31 g/ha ([14]; Postemergence, 31 g ai/ha, visual injury after approx. 10 d, 0 to 100 scale, 0 no effect, 100 complete control, read-out: Plant response rating, Ryegrass, Italian): 0% | plant injury at 125 g/ha ([15]; 125 g ai/ha, postemergence, visual injury on 0 to 100 scale (0 no effect, 100 complete control), approx. 10 d, read-out: Wheat plant response rating): 40% | plant injury at 31 g/ha ([15]; Postemergence, 31 g ai/ha, visual injury after approx. 10 d, 0 to 100 scale, 0 no effect, 100 complete control, read-out: Plant response rating, Wheat): 40% | pest or weed control at 250 g/ha [16]: 90% | pest or weed control at 250 g/ha [17]: 95% | pest or weed control at 250 g/ha (rice (Oryra sativa)): 40% | pest or weed control at 250 g/ha [18]: 0%
